This experiment concerns the target T1, prolyl oligopeptidase (POP) (Homo sapiens, UniProt P48147).
T1 construct: made in house; host or cells: E. coli BL21
T1 sequence (P48147 1-710): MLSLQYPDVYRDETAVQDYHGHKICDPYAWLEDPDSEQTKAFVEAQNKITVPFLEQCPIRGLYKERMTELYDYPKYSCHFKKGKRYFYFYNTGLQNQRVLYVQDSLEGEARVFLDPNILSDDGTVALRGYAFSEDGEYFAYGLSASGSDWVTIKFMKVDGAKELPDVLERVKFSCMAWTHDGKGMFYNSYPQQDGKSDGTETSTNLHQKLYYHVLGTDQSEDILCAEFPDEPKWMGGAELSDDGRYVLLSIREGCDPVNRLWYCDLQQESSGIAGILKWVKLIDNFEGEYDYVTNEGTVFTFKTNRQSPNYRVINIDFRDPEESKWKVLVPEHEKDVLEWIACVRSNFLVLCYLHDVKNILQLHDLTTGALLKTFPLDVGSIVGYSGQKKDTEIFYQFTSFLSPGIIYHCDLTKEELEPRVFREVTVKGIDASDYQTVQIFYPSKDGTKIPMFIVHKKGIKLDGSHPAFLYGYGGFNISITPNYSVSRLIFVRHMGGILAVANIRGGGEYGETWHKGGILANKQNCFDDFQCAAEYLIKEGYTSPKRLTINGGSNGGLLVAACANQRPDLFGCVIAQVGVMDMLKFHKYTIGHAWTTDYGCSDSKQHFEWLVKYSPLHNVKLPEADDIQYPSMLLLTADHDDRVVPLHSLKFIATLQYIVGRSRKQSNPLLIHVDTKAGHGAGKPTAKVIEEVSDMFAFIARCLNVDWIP
In words: ITC enthalpy of catalysis and Michaelis-Menten parameters with TRH. Type of experiment: biochemical. As to conditions: 30 °C. Here is the method:
Prolyl oligopeptidase enthalpy of catalysis and Michaelis-Menten parameters.
Supplementary Figure 3. Prolyl oligopeptidase and TRH enthalpy of catalysis. 3 injections (15 µL over 30 s) of Thyrotropin-releasing Hormone (TRH) (5.5 mM in syringe) into cell containing POP (250 nM in Cell) at 30 °C in buffer described above. Experiment was carried out using a Malvern VP -ITC.
Supplementary Figure 4. Michaelis-Menten plot for prolyl oligopeptidase with TRH. 5 injections (8 µL, 6 […]
Thyrotropin -releasing Hormone (TRH) (27.6 mM in syringe) into cell containing POP (2.5 nM in Cell) at 30 °C in buffer described above. The enzyme velocity at several concentrations of substrate (black ope n circles) was extracted using the methods described in 13 and fit to Michaelis-Menten kinetics (blue curve).
Experiment was carried out in Malvern VP -ITC. […]
Supplementary Table 1. Summary of prolyl oligopeptidase 13 enzyme parameters with TRH. Determined by ITC using techniques presented by Gomez et al.
Enthalpy of binding in kinetics of inhibition and initiation experiments . In the kinetics of inhibition and initiation experiments performed here, the instrument measures both the heat generated by enzymatic catalysis and the heat produced due direct interaction of the inhibitor with the enzyme. In order to estimate the relative magnitudes of these two effects, the enthalpy of binding was directly measured […]
1000-fold greater, 5 µM) than those used in kinetics of inhibition and initiation experiments (Supplementary Fig. 5 ). Binding data were then modelled at the concentrations of enzyme and inhibitor and injection size and spacing used for the kinetic experiment for compound 5, with representative instrumental noise estimated from the basel ines, ΔHbind taken from Supplementary Table 2 and Ki taken as a previously reported value (0.5 nM) 14 (Supplementary Fig. 6).
Supplementary Figure 5. Compound 5 prolyl o ligopeptidase binding experiments. Compound 5 (90 µM) was titrated into 5 µM POP in cell using a Malvern ITC-200 calorimeter. […]

Take thyrotropin-releasing hormone [TRH]: the Km stood at 975 µM, the kcat stood at 42.19 s⁻¹ and the ΔHcat is -6.72 ± 0.06 kcal/mol.

Values taken from article PMC5832847, “Rapid measurement of inhibitor binding kinetics by isothermal titration calorimetry” (Nature Communications, 2018).
